Test results published in patent US20220064141A1, “BENZOPYRIDONE HETEROCYCLIC COMPOUND AND USE THEREOF” (BrightGene Bio-Medical Technology Co., Ltd., priority 2019, published 2022).

test system: NCI-H358 human non-small cell lung cancer cell with KRAS G12C mutation; test: Cell Titer-Glo cell viability, NCI-H358 cells (72 h); format: cell-based; settings: Homo sapiens, NCI-H358, 72 h, class symbols
Source text: Effect Example 1: Pharmacodynamic Assay 1 (Determination of the efficacy of the compounds of the present disclosure on NCI-H358 human non-small cell lung cancer cell with KRAS G12C mutation)
The following method was used to determine the effect of the compounds of the present disclosure on tumor cell proliferation.
For the KRAS G12C subtype, NCI-H358 non-small cell lung cancer cells with KRAS G12C mutation were used to determine the efficacy of the compounds in inhibiting cancer cell viability. NCI-H358 cells were cultured in a DMEM medium containing 10% fetal bovine serum, 100 U penicillin and […] streptomycin. The cells were cultured in an incubator with 5% CO2 at 37° C. Cancer cell viability was evaluated by determining the content of ATP with Cell Titer-Glo® kit (Luminescent Cell Viability Assay kit, please refer to the manufacturer's instructions for use) and evaluating the inhibition of cell growth.
The experimental method was proceeded in accordance with the steps in the instructions for the kit, and was described briefly as follows. The test compounds were first dissolved in DMSO to prepare stock solutions, and then the stock solutions were subjected to gradient dilution with the culture media of the corresponding cells, thereby preparing test samples. The final concentrations of the compounds were in the range of 30 μM to 0.01 nM. Tumor cells in logarithmic growth phase were seeded into a 96-well cell culture plate at an appropriate density. After the cell culture plate was left overnight in an incubator with 5% CO2 at 37° C., the test compound samples were added thereto and then the cells were further cultured for 72 hours. After the incubation was complete, an appropriate volume of Cell Titer-Glo® reagent was added into each well, and the cells were incubated at 37° C. for 1 to 4 hours. Then, the […] was read on a microplate reader.

SMILES	IC50 [nM]
C=CC(=O)N1CCN(c2c(C#N)c(=O)n(-c3ccccc3C(C)C)c3cc(-c4ccc5c(c4)CC5)c(Cl)cc23)[C@@H](C)C1 [Compound I-47]	100 to 1000
C=CC(=O)N1CCN(c2c(C#N)c(=O)n(-c3ccccc3C(C)C)c3cc(-c4c(C)cccc4C)c(Cl)cc23)[C@@H](C)C1 [Compound I-48]	100 to 1000
C=CC(=O)N1CCN(c2c(C#N)c(=O)n(-c3ccccc3C(C)C)c3cc(-c4cc(C#N)ccc4C)c(Cl)cc23)[C@@H](C)C1 [Compound I-49]	100 to 1000
C=CC(=O)N1CCN(c2c(C#N)c(=O)n(-c3ccccc3C(C)C)c3cc(-c4ccc(C#N)cc4C)c(Cl)cc23)[C@@H](C)C1 [Compound I-50]	100 to 1000
C=CC(=O)N1CCN(c2c(C#N)c(=O)n(-c3ccccc3C(C)C)c3cc(-c4coc5ccccc45)c(Cl)cc23)[C@@H](C)C1 [Compound I-51]	100 to 1000
C=CC(=O)N1CCN(c2c(C#N)c(=O)n(-c3ccccc3C(C)C)c3cc(-c4ccnc5[nH]ccc45)c(Cl)cc23)[C@@H](C)C1 [Compound I-52]	100 to 1000
C=CC(=O)N1CCN(c2c(C#N)c(=O)n(-c3ccccc3C(C)C)c3cc(-c4ccc(C5CC5)cc4)c(Cl)cc23)[C@@H](C)C1 [Compound I-53]	100 to 1000
C=CC(=O)N1CCN(c2c(C#N)c(=O)n(-c3ccccc3C(C)C)c3cc(-c4cn[nH]c4)c(Cl)cc23)[C@@H](C)C1 [Compound I-54]	100 to 1000
C=CC(=O)N1CCN(c2c(C#N)c(=O)n(-c3ccccc3C(C)C)c3cc(-c4cccc5ccoc45)c(Cl)cc23)[C@@H](C)C1 [Compound I-55]	100 to 1000
C=CC(=O)N1CCN(c2c(C#N)c(=O)n(-c3ccccc3C(C)C)c3cc(-c4ccc(N)nc4C)c(Cl)cc23)[C@@H](C)C1 [Compound I-56]	100 to 1000
C=CC(=O)N1CCN(c2c(C#N)c(=O)n(-c3ccccc3C(C)C)c3cc(-c4ccc(Cl)cc4N)c(Cl)cc23)[C@@H](C)C1 [Compound I-57]	< 100
C=CC(=O)N1CCN(c2c(C#N)c(=O)n(-c3ccccc3C(C)C)c3cc(-c4cnn(CCO)c4)c(Cl)cc23)[C@@H](C)C1 [Compound I-58]	100 to 1000
C=CC(=O)N1CCN(c2c(C#N)c(=O)n(-c3ccccc3C(C)C)c3cc(-c4cncc(N)c4)c(Cl)cc23)[C@@H](C)C1 [Compound I-59]	> 1000
C=CC(=O)N1CCN(c2c(C#N)c(=O)n(-c3ccccc3C(C)C)c3cc(-c4ccc(C#N)cc4N)c(Cl)cc23)[C@@H](C)C1 [Compound I-60]	100 to 1000
C=CC(=O)N1CCN(c2c(C#N)c(=O)n(-c3ccccc3C(C)C)c3cc(-c4ccc(F)cc4O)c(Cl)cc23)[C@@H](C)C1 [Compound I-61]	< 100
C=CC(=O)N1CCN(c2c(C#N)c(=O)n(-c3ccccc3C(C)C)c3cc(-c4cnc(N)nc4)c(Cl)cc23)[C@@H](C)C1 [Compound I-62]	100 to 1000
C=CC(=O)N1CCN(c2c(C#N)c(=O)n(-c3ccccc3C(C)C)c3cc(-c4ccc(F)cc4CO)c(Cl)cc23)[C@@H](C)C1 [Compound I-63]	100 to 1000
C=CC(=O)N1CCN(c2c(C#N)c(=O)n(-c3ccccc3C(C)C)c3cc(-c4ccc(N)nc4)c(Cl)cc23)[C@@H](C)C1 [Compound I-64]	100 to 1000
C=CC(=O)N1CCN(c2c(C#N)c(=O)n(-c3ccccc3C(C)C)c3cc(-c4ccccc4CO)c(Cl)cc23)[C@@H](C)C1 [Compound I-65]	100 to 1000

SMILES	IC50 [nM]
C=CC(=O)N1CCN(c2c(C#N)c(=O)n(-c3ccccc3C(C)C)c3cc(-c4cc(C)ccc4O)c(Cl)cc23)[C@@H](C)C1 [Compound I-66]	< 100
C=CC(=O)N1CCN(c2c(C#N)c(=O)n(-c3ccccc3C(C)C)c3cc(-c4ccc(C)c(O)c4)c(Cl)cc23)[C@@H](C)C1 [Compound I-67]	100 to 1000
C=CC(=O)N1CCN(c2c(C#N)c(=O)n(-c3ccccc3C(C)C)c3cc(-c4ccn(C)c(=O)c4)c(Cl)cc23)[C@@H](C)C1 [Compound I-68]	100 to 1000
C=CC(=O)N1CCN(c2c(C#N)c(=O)n(-c3ccccc3C(C)C)c3cc(-c4cc(F)ccc4N)c(Cl)cc23)[C@@H](C)C1 [Compound I-69]	< 100
C=CC(=O)N1CCN(c2c(C#N)c(=O)n(-c3ccccc3C(C)C)c3cc(-c4cc(F)ccc4O)c(Cl)cc23)[C@@H](C)C1 [Compound I-70]	< 100
C=CC(=O)N1CCN(c2c(C#N)c(=O)n(-c3ccccc3C(C)C)c3cc(-c4cccc(O)c4F)c(Cl)cc23)[C@@H](C)C1 [Compound I-71]	100 to 1000
C=CC(=O)N1CCN(c2c(C#N)c(=O)n(-c3ccccc3C(C)C)c3cc(-c4cc(O)ccc4F)c(Cl)cc23)[C@@H](C)C1 [Compound I-73]	100 to 1000
C=CC(=O)N1CCN(c2c(C#N)c(=O)n(-c3ccccc3C(C)C)c3cc(-c4ccc5[nH]ncc5c4)c(Cl)cc23)[C@@H](C)C1 [Compound I-74]	> 1000
C=CC(=O)N1CCN(c2c(C#N)c(=O)n(-c3ccccc3C(C)C)c3cc(-c4ccccc4C4CC4)c(Cl)cc23)[C@@H](C)C1 [Compound I-75]	100 to 1000
C=CC(=O)N1CCN(c2c(C#N)c(=O)n(-c3ccccc3C(C)C)c3cc(-c4cc(Cl)cc(C)c4N)c(Cl)cc23)[C@@H](C)C1 [Compound I-76]	< 100
C=CC(=O)N1CCN(c2c(C#N)c(=O)n(-c3ccccc3C(C)C)c3cc(-c4cccc(N)c4F)c(Cl)cc23)[C@@H](C)C1 [Compound I-77]	100 to 1000
C=CC(=O)N1CCN(c2c(C#N)c(=O)n(-c3ccccc3C(C)C)c3cc(-c4cc(C(F)(F)F)cc(Cl)c4N)c(Cl)cc23)[C@@H](C)C1 [Compound I-79]	< 100
C=CC(=O)N1CCN(c2c(C#N)c(=O)n(-c3ccccc3C(C)C)c3cc(-c4cc(C)cc(Cl)c4N)c(Cl)cc23)[C@@H](C)C1 [Compound I-80]	< 100
C=CC(=O)N1CCN(c2c(C#N)c(=O)n(-c3ccccc3C(C)C)c3cc(-c4cc(C)cc(C)c4N)c(Cl)cc23)[C@@H](C)C1 [Compound I-81]	100 to 1000
C=CC(=O)N1CCN(c2c(C#N)c(=O)n(-c3c(C)ccnc3C(C)C)c3cc(-c4c(C)ccc5[nH]ncc45)c(Cl)cc23)[C@@H](C)C1 [Compound I-83-1]	< 100
C=CC(=O)N1CCN(c2c(C#N)c(=O)n(-c3c(C)ccnc3C(C)C)c3cc(-c4c(OC)ccc(Cl)c4F)c(Cl)cc23)[C@@H](C)C1 [Compound I-84-1]	< 100
C=CC(=O)N1CCN(c2c(C#N)c(=O)n(-c3ccccc3Cl)c3cc(-c4c(OC)ccc(Cl)c4F)c(Cl)cc23)[C@@H](C)C1 [Compound I-85-1]	100 to 1000
C=CC(=O)N1CCN(c2c(C#N)c(=O)n(-c3c(C(C)C)ncnc3C(C)C)c3cc(-c4c(C)ccc5[nH]ncc45)c(Cl)cc23)[C@@H](C)C1 [Compound I-86-1]	< 100
C=CC(=O)N1CCN(c2c(C#N)c(=O)n(-c3c(C(C)C)ncnc3C(C)C)c3cc(-c4c(OC)ccc(Cl)c4F)c(Cl)cc23)[C@@H](C)C1 [Compound I-87-1]	< 100

same assay, conditions: class symbols

SMILES	IC50 [nM]
C=CC(=O)N1CCN(c2c(C#N)c(=O)n(-c3ccccc3C(C)C)c3cc(-c4ccc(F)cc4O)c(Cl)cc23)[C@@H](C)C1 [Compound I-72]	< 100
C=CC(=O)N1CCN(c2c(C#N)c(=O)n(-c3ccccc3C(C)C)c3cc(-c4cc(Cl)ccc4N)c(Cl)cc23)[C@@H](C)C1 [Compound I-82]	< 100
C=CC(=O)N1CCN(c2c(C#N)c(=O)n(-c3c(C)ccnc3C(C)C)c3cc(-c4c(C)ccc5[nH]ncc45)c(Cl)cc23)[C@@H](C)C1 [Compound I-83-2]	100 to 1000
C=CC(=O)N1CCN(c2c(C#N)c(=O)n(-c3c(C)ccnc3C(C)C)c3cc(-c4c(OC)ccc(Cl)c4F)c(Cl)cc23)[C@@H](C)C1 [Compound I-84-2]	100 to 1000
C=CC(=O)N1CCN(c2c(C#N)c(=O)n(-c3ccccc3Cl)c3cc(-c4c(OC)ccc(Cl)c4F)c(Cl)cc23)[C@@H](C)C1 [Compound I-85-2]	100 to 1000
C=CC(=O)N1CCN(c2c(C#N)c(=O)n(-c3c(C(C)C)ncnc3C(C)C)c3cc(-c4c(C)ccc5[nH]ncc45)c(Cl)cc23)[C@@H](C)C1 [Compound I-86-2]	100 to 1000
C=CC(=O)N1CCN(c2c(C#N)c(=O)n(-c3c(C(C)C)ncnc3C(C)C)c3cc(-c4c(OC)ccc(Cl)c4F)c(Cl)cc23)[C@@H](C)C1 [Compound I-87-2]	100 to 1000
